One block for each compound: values may come before it.
Test system: 624824-186-R-J3-PDC multicell spheroids, viability
Experiment: Anticancer human tumor 624824-186-R-J3-PDC patient-derived colon adenocarcinoma cell line growth inhibition [PI3K]
Details: for viability, T/C: stronger effect = lower value
Source text: Combinatorial screen of targeted agents with the PI3K inhibitors inavolisib, alpelisib, duvelisib, and copanlisib in multi-cell type tumor spheroids
A high-throughput screen of multi-cell type tumor spheroids was designed to identify active combinations of targeted small molecules and PI3K pathway inhibitors. Complex spheroids include a stromal component modeled by human endothelial cells (HUVEC) and fibroblasts modeled by human mesenchymal stem cells (MSCs). The concentration ranges selected for each drug and investigational agent were based upon clinically achievable concentrations if the clinical Cmax of the agent was known.
Compounds. The drugs and investigational agents: inavolisib (NSC800729), alpelisib (NSC765974), duvelisib (NSC772469), copanlisib (NSC816437), ipatasertib (NSC767898), afuresertib (NSC778305), talazoparib (NSC767125), sapanisertib (NSC764658), selumetinib (NSC741078), tovorafenib (DAY101, NSC766906), vemurafenib (NSC761431), ravoxertinib (NSC781343), sotorasib (NSC818433), MRTX1133 (NSC 836407), abemaciclib (NSC 768073), palbociclib (NSC758247), venetoclax (NSC 766270), SY5609 (NSC837396), enzalutamide (NSC755605), and darolutamide (NSC825331), were obtained from the National Cancer Institute (NCI) Developmental Therapeutics Program Chemical Repository. The FDA-approved anticancer drug set is available from the NCI Developmental Therapeutics Program. […] The stock solutions were prepared in dimethyl sulfoxide (DMSO, Sigma-Aldrich, St. Louis, MO, cat. D2650) at 800-fold the tested concentration and stored at -70 degrees C prior to their use. All drugs and investigational agents were tested over a range starting from a high concentration at or near the clinical Cmax and decreasing in half-log increments. If the clinical Cmax for an agent had not been determined, the highest concentration tested was 10 microM.
Cell Culture. All cells were maintained in an incubator at 37 degrees C and 5% CO2 with 95% humidity. The PDC lines were cultured according to standard operating procedures established by the NCI PDMR (https://pdmr.cancer.gov/sops/default.htm). All PDCs were thawed and cultured in Matrigel-coated flasks prepared with a working solution of 1X Ham's F-12 nutrient mix, without supplementation (Invitrogen, Waltham, MA, cat. 11765054), 100 U/mL penicillin-streptomycin (Invitrogen, cat. 15140122), and 2.5% Matrigel (Corning Inc., Corning, NY, cat. 354248) for the first three passages. The 354836-022-R-J1-PDC, 475296-252-R-J1-PDC, and 997726-040-R-J2-PDC lines were cultured in 6A media, which includes advanced DMEM/F-12 (Thermo Fisher Scientific, cat. 12634028), 10 mM HEPES (Thermo Fisher Scientific, cat. 15630080), 1X GlutaMAX supplement (Thermo Fisher Scientific, cat. 35050061), 0.1 mg/mL primocin (InvivoGen, San Diego, CA, cat. ant-pm-2), 10% defined fetal bovine serum, heat inactivated (HyClone Laboratories Inc., Logan, UT, cat. SH30070.03HI), 50% L-WRN conditioned media (ATCC, cat. CRL-3276), 1.25 mM N-Acetyl-L-cysteine (Sigma-Aldrich, cat. A9165), 10 mM nicotinamide (Sigma-Aldrich, cat. N0636), 1X B-27 supplement (Thermo Fisher Scientific, cat. 17504044), 1X N-2 supplement (Thermo Fisher Scientific, cat. 17502048), and 10 microM Y-27632 dihydrochloride (Tocris Bioscience, Bristol, United Kingdom, cat. 1254). The 624824-186-R-J2-PDC line was cultured in 6C/Colon 1B media, which includes all 6A media components plus 50 ng/mL human EGF recombinant protein (Thermo Fisher Scientific, cat. PHG0311). […]
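Further: spheroids exposed to agents for seven days before luminescence read.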
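Wherever viability, T/C is given: luminescent signal used as a stand-in for spheroid viability; percent viability relative to DMSO vehicle control wells taken as 100%.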

IC50 (curve of first compound, second compound 0.0316 µM): > 10 µM | IC50 (curve of first compound, second compound 0.1 µM): > 10 µM | IC50 (curve of first compound, second compound 0.316 µM): > 10 µM | IC50 (curve of first compound, second compound 1 µM): > 10 µM | IC50 (curve of first compound, second compound 3.16 µM): > 10 µM | IC50 (curve of first compound, second compound 10 µM): > 10 µM
SMILES: C#Cc1c(F)ccc2cc(O)cc(-c3ncc4c(N5CC6CCC(C5)N6)nc(OCC56CCCN5CC(F)C6)nc4c3F)c12 (stereo not drawn) + Cc1nc(NC(=O)N2CCCC2C(N)=O)sc1-c1ccnc(C(C)(C)C(F)(F)F)c1
viability, T/C (second compound 0.0316 µM, first compound 0.0316 µM): 108% | viability, T/C (second compound 0.0316 µM, first compound 0.1 µM): 97% | viability, T/C (second compound 0.0316 µM, first compound 0.316 µM): 121% | viability, T/C (second compound 0.0316 µM, first compound 1 µM): 102% | viability, T/C (second compound 0.0316 µM, first compound 3.16 µM): 108% | viability, T/C (second compound 0.0316 µM, first compound 10 µM): 100% | viability, T/C (second compound 0.1 µM, first compound 0.0316 µM): 111% | viability, T/C (second compound 0.1 µM, first compound 0.1 µM): 98.2% | viability, T/C (second compound 0.1 µM, first compound 0.316 µM): 94.9% | viability, T/C (second compound 0.1 µM, first compound 1 µM): 103% | viability, T/C (second compound 0.1 µM, first compound 3.16 µM): 116% | viability, T/C (second compound 0.1 µM, first compound 10 µM): 102% | viability, T/C (second compound 0.316 µM, first compound 0.0316 µM): 103% | viability, T/C (second compound 0.316 µM, first compound 0.1 µM): 102% | viability, T/C (second compound 0.316 µM, first compound 0.316 µM): 108% | viability, T/C (second compound 0.316 µM, first compound 1 µM): 101% | viability, T/C (second compound 0.316 µM, first compound 3.16 µM): 112% | viability, T/C (second compound 0.316 µM, first compound 10 µM): 108% | viability, T/C (second compound 1 µM, first compound 0.0316 µM): 100% | viability, T/C (second compound 1 µM, first compound 0.1 µM): 97.4% | viability, T/C (second compound 1 µM, first compound 0.316 µM): 114% | viability, T/C (second compound 1 µM, first compound 1 µM): 100% | viability, T/C (second compound 1 µM, first compound 3.16 µM): 112% | viability, T/C (second compound 1 µM, first compound 10 µM): 107% | viability, T/C (second compound 3.16 µM, first compound 0.0316 µM): 88.9% | viability, T/C (second compound 3.16 µM, first compound 0.1 µM): 88.2% | viability, T/C (second compound 3.16 µM, first compound 0.316 µM): 83% | viability, T/C (second compound 3.16 µM, first compound 1 µM): 85.2% | viability, T/C (second compound 3.16 µM, first compound 3.16 µM): 98.2% | viability, T/C (second compound 3.16 µM, first compound 10 µM): 80.4% | viability, T/C (second compound 10 µM, first compound 0.0316 µM): 71.4% | viability, T/C (second compound 10 µM, first compound 0.1 µM): 70.9% | viability, T/C (second compound 10 µM, first compound 0.316 µM): 68.9% | viability, T/C (second compound 10 µM, first compound 1 µM): 64.6% | viability, T/C (second compound 10 µM, first compound 3.16 µM): 58.8% | viability, T/C (second compound 10 µM, first compound 10 µM): 54.3%

IC50 (compound alone, run of 04/25/2023): > 10 µM
SMILES: CC(Nc1ncnc2nc[nH]c12)c1cc2cccc(Cl)c2c(=O)n1-c1ccccc1 (stereo not drawn)
viability, T/C (compound 0.0316 µM): 103% [middle of 8 runs] | viability, T/C (compound 0.316 µM): 106% [middle of 8 runs] | viability, T/C (compound 1 µM): 108% [middle of 8 runs] | viability, T/C (compound 3.16 µM): 106% [middle of 8 runs] | viability, T/C (compound 10 µM): 94.7% [middle of 8 runs]
